Here are results for 28 compounds from US9023852B2, “1, 2, 4-thiadiazol-5-ylpiperazine derivatives useful in the treatment of neurodegenerative diseases” (Remynd NV, priority 2011, dated 2015).

In this assay the test system is M17—3TAU(P301L) cells. Nature of the assay: Neuroblastoma tauopathy model: inhibition of TAU-induced cytotoxicity (LDH). Type of assay: cell-based. The following applies: Homo sapiens, 168 h; inhibition of TAU-induced toxicity (LDH), 7 days differentiation with retinoic acid. An outline of the steps:
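BE-M17 neuroblastoma cells stably expressing human TAU-P301L, differentiated with RA (2.5 μM in added medium) for 7 days at 37 °C with compounds at a range of concentrations. Cytotoxicity as supernatant LDH over total LDH (Cytotox 96); EC50 from dose-dependent inhibition curve.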
For orientation: EC50 means the midpoint of the concentration-response curve. `Clc1ccc(-c2nsc(N3CCN(CCC4CCOCC4)CC3)n2)cc1` [Example 167, 3-(4-chlorophenyl)-5-(4-(2-(tetrahydro-2H-pyran-4-yl)ethyl)piperazin-1-yl)-1,2,4-thiadiazole] came in with an EC50 of 5.9 nM.
The same measure for `Clc1ccc(CCN2CCN(c3nc(-c4ccc(Cl)cc4)ns3)CC2)cc1` [Example 25, 1-[2-(4-Chloro-phenyl)-ethyl]-4-[3-(4-chloro-phenyl)-[1,2,4]thiadiazol-5-yl]-piperazine]: 7.7 nM.
The same measure for `Fc1ccc(CCN2CCN(c3nc(-c4ccc(F)c(F)c4)ns3)CC2)cc1` [Example 103, 1-[3-(3,4-Difluoro-phenyl)-[1,2,4]thiadiazol-5-yl]-4-[2-(4-fluoro-phenyl)-ethyl]-piperazine]: 3.4 nM; for `COc1ccc(CCN2CCN(c3nc(-c4cccs4)ns3)CC2)cc1` [Example 44, 1-[2-(4-Methoxy-phenyl)-ethyl]-4-(3-thiophen-2-yl-[1,2,4]thiadiazol-5-yl)-piperazine]: 2.3 nM; for `COc1ccc(CCN2CCN(c3nc(-c4ccc(F)cc4OC)ns3)CC2)cc1` [Example 67, 1-[3-(4-Fluoro-2-methoxy-phenyl)-[1,2,4]thiadiazol-5-yl]-4-[2-(4-methoxy-phenyl)-ethyl]-piperazine]: 1 nM.
To `Clc1cccc(-c2nsc(N3CCN(CCc4ccccc4)CC3)n2)c1` [Example 82, 1-[3-(3-Chloro-phenyl)-[1,2,4]thiadiazol-5-yl]-4-phenethyl-piperazine] belongs 4 nM; to `COc1ccc(C(F)CN2CCN(c3nc(-c4ccc(Cl)cc4)ns3)CC2)cc1` (stereo not shown) [Example 64, 1-[3-(4-Chloro-phenyl)-[1,2,4]thiadiazol-5-yl]-4-[2-fluoro-2-(4-methoxy-phenyl)-ethyl]-piperazine], 9.8 nM; to `Cc1ccc(CCN2CCN(c3nc(-c4ccc(Cl)cc4)ns3)CC2)cc1` [Example 26, 1-[3-(4-Chloro-phenyl)-[1,2,4]thiadiazol-5-yl]-4-(2-p-tolyl-ethyl)-piperazine], 4.9 nM.
Compound `N#Cc1ccc(-c2nsc(N3CCN(CCc4ccc(Cl)cc4)CC3)n2)cc1` [Example 112, 4-(5-{4-[2-(4-Chloro-phenyl)-ethyl]piperazin-1-yl}-[1,2,4]thiadiazol-3-yl)-benzonitrile] yielded a concentration for a half-maximal effect (EC50) of 56.7 nM. Against the preceding compound, the EC50 is about 12-fold higher.
The same measure for `Cc1ccc(-c2nsc(N3CCN(Cc4ccccc4C)CC3)n2)cn1` [Example 150, 1-(2-Methyl-benzyl)-4-[3-(6-methyl-pyridin-3-yl)-[1,2,4]thiadiazol-5-yl]-piperazine]: 185 nM.
`COc1ccc(CCN2CCN(c3nc(-c4ccc(C#N)cc4)ns3)CC2)cn1` [Example 114, 4-(5-{4-[2-(6-Methoxy-pyridin-3-yl)-ethyl]-piperazin-1-yl}-[1,2,4]thiadiazol-3-yl)-benzonitrile] showed an EC50 of 7.9 nM.
`FC(F)(F)Oc1cccc(CCN2CCN(c3nc(-c4ccc(Cl)cc4)ns3)CC2)c1` [Example 38, 1-[3-(4-Chloro-phenyl)-[1,2,4]thiadiazol-5-yl]-4-[2-(3-trifluoromethoxy-phenyl)-ethyl]-piperazine] returned an EC50 of 211 nM.
The same measure for `Fc1ccc(CCN2CCN(c3nc(-c4ccc(Cl)cc4)ns3)CC2)cc1F` [Example 134, 1-[3-(4-Chloro-phenyl)-[1,2,4]thiadiazol-5-yl]-4-[2-(3,4-difluoro-phenyl)-ethyl]-piperazine]: 37.8 nM.
Compound `Cc1cc(-c2nsc(N3CCN(CCc4ccccc4)CC3)n2)cnn1` [Example 173, 3-(6-methylpyridazin-4-yl)-5-(4-phenethylpiperazin-1-yl)-1,2,4-thiadiazole] returned an EC50 of 2.9 nM. This EC50 is about 13-fold lower than that of the compound before.
`COc1ccc(CCN2CCN(c3nc(-c4cccc(C#N)c4)ns3)CC2)cn1` [Example 115, 3-(5-{4-[2-(6-Methoxy-pyridin-3-yl)-ethyl]-piperazin-1-yl}-[1,2,4]thiadiazol-3-yl)-benzonitrile] showed a concentration giving a half-maximal response (EC50) of 2.3 nM.
The same measure for `Clc1ccc(CCN2CCN(c3nc(-c4cccc(Cl)c4)ns3)CC2)cc1` [Example 87, 1-[2-(4-Chloro-phenyl)-ethyl]-4-[3-(3-chloro-phenyl)-[1,2,4]thiadiazol-5-yl]-piperazine]: 13.1 nM; for `COc1ccc(CCN2CCN(c3nc(-c4ccc(OC(F)(F)F)cc4)ns3)CC2)cc1` [Example 37, 1-[2-(4-Methoxy-phenyl)-ethyl]-4-[3-(4-trifluoromethoxy-phenyl)-[1,2,4]thiadiazol-5-yl]-piperazine]: 2.9 nM.
With `COc1cc(CCN2CCN(c3nc(-c4cccc(C#N)c4)ns3)CC2)ccn1` [Example 117, 3-(5-{4-[2-(2-Methoxy-pyridin-4-yl)-ethyl]-piperazin-1-yl}-[1,2,4]thiadiazol-3-yl)-benzonitrile], the midpoint of the response, the EC50, lay at 5.8 nM.
To `COc1ccc(CCN2CCN(c3nc(-c4cncc(Cl)c4)ns3)CC2)cc1` [Example 91, 1-[3-(5-Chloro-pyridin-3-yl)-[1,2,4]thiadiazol-5-yl]-4-[2-(4-methoxy-phenyl)-ethyl]-piperazine] belongs 0.9 nM.
To `COc1ccc(CCN2CCN(c3nc(-c4cccc(F)c4)ns3)CC2)cc1` [Example 84, 1-[3-(3-Fluoro-phenyl)-[1,2,4]thiadiazol-5-yl]-4-[2-(4-methoxy-phenyl)-ethyl]-piperazine] belongs 0.7 nM; to `Fc1ccc(CCN2CCN(c3nc(-c4cc(Cl)ccn4)ns3)CC2)cc1F` [Example 157, 3-(4-chloropyridin-2-yl)-5-(4-(3,4-difluorophenethyl)piperazin-1-yl)-1,2,4-thiadiazole], 29 nM; to `COc1cccc(CCN2CCN(c3nc(-c4ccccc4OC)ns3)CC2)c1` [Example 35, 1-[2-(3-Methoxy-phenyl)-ethyl]-4-[3-(2-methoxy-phenyl)-[1,2,4]thiadiazol-5-yl]-piperazine], 3.5 nM.
To `Cc1ccc(-c2nsc(N3CCN(CCc4ccc(F)cc4)CC3)n2)cn1` [Example 96, 1-[2-(4-Fluoro-phenyl)-ethyl]-4-[3-(6-methyl-pyridin-3-yl)-[1,2,4]thiadiazol-5-yl]-piperazine] belongs 28.1 nM.
Compound `Cc1ccc(-c2nsc(N3CCN(CCc4ccccc4)CC3)n2)cc1` [Example 4, 1-Phenethyl-4-(3-p-tolyl-[1,2,4]thiadiazol-5-yl)-piperazine] registered an EC50 of 115 nM.
To `Cc1cc(-c2nsc(N3CCN(CCc4ccccc4)CC3)n2)ccn1` [Example 171, 3-(2-methylpyridin-4-yl)-5-(4-phenethylpiperazin-1-yl)-1,2,4-thiadiazole] belongs 2.4 nM; to `Clc1cncc(-c2nsc(N3CCN(CCC4CCOCC4)CC3)n2)c1` [Example 166, 3-(5-chloropyridin-3-yl)-5-(4-(2-(tetrahydro-2H-pyran-4-yl)ethyl)piperazin-1-yl)-1,2,4-thiadiazole], 0.7 nM; to `COc1cc(CCN2CCN(c3nc(-c4ccc(F)c(F)c4)ns3)CC2)ccn1` [Example 106, 1-[3-(3,4-Difluoro-phenyl)-[1,2,4]thiadiazol-5-yl]-4-[2-(2-methoxy-pyridin-4-yl)-ethyl]-piperazine], 3 nM.
To `COc1ccc(CCN2CCN(c3nc(-c4ccc(C#N)cc4)ns3)CC2)cc1` [Example 78, 4-(5-{4-[2-(4-Methoxy-phenyl)-ethyl]-piperazin-1-yl}-[1,2,4]thiadiazol-3-yl)-benzonitrile] belongs 2.1 nM.
